Entries after “also recorded” stand apart in the source; their conditions may differ. Residues, ends and D or L forms follow the SMILES beside them.

Data set [1] deals with T1, ACE2–RBD interaction (wt SARS-CoV-2 spike protein RBD-Fc / His-tagged hACE2) (Severe acute respiratory syndrome coronavirus 2, UniProt P0DTC2).
T1 construct: SARS-CoV-2 spike protein RBD-Fc fusion protein; Fc fusion; purchased Sino Biological
The data set is described as follows: SARS-CoV-2 spike protein RBD–hACE2 inhibition assay (ELISA), wt RBD. It counts as biochemical. Particulars: individual helices of LCB1.

In data set [2] the target is T2, neutrophil elastase (Homo sapiens, UniProt P08246).
T2 construct: purchased Abcam
T2 sequence (P08246 30-267): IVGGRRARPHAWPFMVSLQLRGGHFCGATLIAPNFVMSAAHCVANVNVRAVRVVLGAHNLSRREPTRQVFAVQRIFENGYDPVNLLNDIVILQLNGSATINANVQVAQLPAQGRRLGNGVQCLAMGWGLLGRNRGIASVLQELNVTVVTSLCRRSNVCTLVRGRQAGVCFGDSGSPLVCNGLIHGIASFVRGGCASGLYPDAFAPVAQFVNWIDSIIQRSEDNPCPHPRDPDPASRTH
It counts as in vitro ADME. Particulars: neutrophil elastase 5.5 µg/mL in Tris buffer 0.1 M + NaCl 0.5 M pH 7.8, enzyme pre-incubated 15 min at 37 °C, peptide 100 µM, 60 min, LC-MS (Figure 4C,D). As for the experimental part: (§1) The enzymes (pepsin, Ph.Eur. grade, Carl Roth GmbH, and neutrophil elastase, 20–22 U/mg, Abcam, respectively) were diluted to 5.5 µg/mL in TFA 10 mM (pepsin) or Tris buffer 0.1 M + NaCl 0.5 M pH 7.8 (neutrophil elastase) and pre-incubated for 15 min at 37 °C. Peptides were added at 100 µM and incubated at 37 °C. A sample of 40 µL was taken after 60 min of incubation and the reaction was stopped by adding 5 µL sodium carbonate solution (1 M, pepsin) and 5 µL TFA (neutrophil elastase), respectively. After 10 min, 60 µL acetonitrile/water 50:50 containing 1% TFA were added, and the resulting solution was analyzed by LC-MS (conditions: Phenomenex Kinetex 2.6 μm C18 100 Å column, 50 × 2.1 mm, flow rate 0.55 mL/min, gradient of acetonitrile in H2O (both containing 0.1% TFA, 20–60% over 20 min)).

In data set [3] the target is T3, pepsin (Sus scrofa, UniProt P00791).
T3 construct: purchased Carl Roth GmbH
T3 sequence (P00791 60-385): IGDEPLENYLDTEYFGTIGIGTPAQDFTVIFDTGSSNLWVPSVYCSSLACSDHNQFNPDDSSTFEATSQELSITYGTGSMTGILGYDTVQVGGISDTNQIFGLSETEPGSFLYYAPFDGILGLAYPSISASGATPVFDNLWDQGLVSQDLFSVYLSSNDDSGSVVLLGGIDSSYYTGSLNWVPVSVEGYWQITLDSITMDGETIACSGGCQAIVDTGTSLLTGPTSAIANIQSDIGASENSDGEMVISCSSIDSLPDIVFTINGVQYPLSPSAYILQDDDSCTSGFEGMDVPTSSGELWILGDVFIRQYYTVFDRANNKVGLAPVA
It counts as in vitro ADME. Particulars: pepsin 5.5 µg/mL in TFA 10 mM, enzyme pre-incubated 15 min at 37 °C, peptide 100 µM, 60 min, LC-MS (Figure 4A,B). The method, then: as §1

In data set [4] the test system is neutrophil elastase. The data set is described as follows: neutrophil elastase, 20–22 U/mg, Abcam, diluted to 5.5 µg/mL in Tris buffer 0.1 M + NaCl 0.5 M pH 7.8. Particulars: 37 °C, up to 60 min.
In data set [5] the test system is pepsin. In words: pepsin, Ph.Eur. grade, Carl Roth GmbH, diluted to 5.5 µg/mL in TFA 10 mM. To be noted: 37 °C, up to 60 min.

`CC[C@H](C)[C@H](NC(=O)[C@H](Cc1c[nH]c2ccccc12)NC(=O)[C@H](CCC(=O)O)NC(=O)[C@H](CCCCN)NC(=O)[C@H](CC(=O)O)NC(=O)COCCOCCNC(=O)CCCC[C@@H]1SC[C@@H]2NC(=O)N[C@@H]21)C(=O)N[C@@H](CC(C)C)C(=O)N[C@@H](CCC(N)=O)C(=O)N[C@@H](CCCCN)C(=O)N[C@H](C(=O)N[C@@H](Cc1ccc(O)cc1)C(=O)N[C@@H](CCC(=O)O)C(=O)N[C@H](C(=O)N[C@@H](CCSC)C(=O)N[C@@H](CCCNC(=N)N)C(=O)N[C@@H](CC(C)C)C(=O)N[C@@H](CC(C)C)C(=O)N[C@@H](CC(=O)O)C(=O)N[C@@H](CCC(=O)O)C(=O)N[C@@H](CC(C)C)C(N)=O)[C@@H](C)CC)[C@@H](C)CC` [LW25.5] (HELM PEPTIDE1{[O=C1N[C@H]2[C@H](CS[C@H]2CCCCC(=O)[*:2])N1].[O=C(COCCOCCN[*:1])[*:2]].D.K.E.W.I.L.Q.K.I.Y.E.I.M.R.L.L.D.E.L.[am]}$$$$V2.0): the “Inhibitory activity on the ACE2–RBD interaction (in words)” value in data set [1] is “completely inactive”.

Regarding `CC[C@H](C)[C@H](NC(=O)[C@H](CC(C)C)NC(=O)[C@H](CC(=O)O)NC(=O)[C@H](CO)NC(=O)[C@@H](NC(=O)[C@H](CCCNC(=N)N)NC(=O)[C@H](CCSC)NC(=O)[C@H](CO)NC(=O)[C@H](C)NC(=O)[C@H](CCC(=O)O)NC(=O)[C@H](C)NC(=O)[C@H](Cc1c[nH]cn1)NC(=O)CNC(=O)COCCOCCNC(=O)CCCC[C@@H]1SC[C@@H]2NC(=O)N[C@@H]21)C(C)C)C(=O)N[C@@H](Cc1ccc(O)cc1)C(=O)N[C@@H](CCC(=O)O)C(=O)N[C@@H](Cc1ccccc1)C(=O)N[C@@H](CCSC)C(=O)N[C@@H](CCCCN)C(=O)N[C@@H](CCCCN)C(=O)NCC(N)=O` [LW25.6] (HELM PEPTIDE1{[O=C1N[C@H]2[C@H](CS[C@H]2CCCCC(=O)[*:2])N1].[O=C(COCCOCCN[*:1])[*:2]].G.H.A.E.A.S.M.R.V.S.D.L.I.Y.E.F.M.K.K.G.[am]}$$$$V2.0), the “Inhibitory activity on the ACE2–RBD interaction (in words)” value in data set [1] is “completely inactive”.

In the case of `CC[C@H](C)[C@@H]1NC(=O)[C@H](CC(C)C)NC(=O)[C@H](CC(=O)O)NC(=O)[C@H](CO)NC(=O)[C@H](C(C)C)NC(=O)[C@H](CCCNC(=N)N)NC(=O)[C@H](CCSC)NC(=O)[C@H](CO)NC(=O)[C@H](C)NC(=O)[C@H](CCC(=O)O)NC(=O)[C@H](C)NC(=O)[C@H](Cc2c[nH]cn2)NC(=O)CNC(=O)[C@H](CC(C)C)NC(=O)[C@H](CCC(=O)O)NC(=O)[C@H](CC(=O)O)NC(=O)[C@H](CC(C)C)NC(=O)[C@H](CC(C)C)NC(=O)[C@H](CCCNC(=N)N)NC(=O)[C@H](CCSC)NC(=O)[C@H]([C@@H](C)CC)NC(=O)[C@H](CCC(=O)O)NC(=O)[C@H](Cc2ccc(O)cc2)NC(=O)[C@H]([C@@H](C)CC)NC(=O)[C@H](CCCCN)NC(=O)[C@H](CCC(N)=O)NC(=O)[C@H](CC(C)C)NC(=O)[C@H]([C@@H](C)CC)NC(=O)[C@H](Cc2c[nH]c3ccccc23)NC(=O)[C@H](CCC(=O)O)NC(=O)[C@@H](NC(=O)COCCOCCNC(=O)CCCC[C@@H]2SC[C@@H]3NC(=O)N[C@@H]32)CSSC[C@@H](C(N)=O)NC(=O)[C@H](CCCCN)NC(=O)[C@H](CCCCN)NC(=O)[C@H](CCSC)NC(=O)[C@H](Cc2ccccc2)NC(=O)[C@H](CCC(=O)O)NC(=O)[C@H](Cc2ccc(O)cc2)NC1=O` [LW25.13], the “Stability towards neutrophil elastase (in words)” value on neutrophil elastase [2] is reported as “still largely intact”. The “Susceptibility to proteolytic degradation by pepsin (in words)” value at pepsin [3] is given as “largely stable”.

For `CC[C@H](C)[C@H](NC(=O)[C@H](CC(C)C)NC(=O)[C@H](CC(=O)O)NC(=O)[C@H](CO)NC(=O)[C@@H](NC(=O)[C@H](CCCNC(=N)N)NC(=O)[C@H](CCSC)NC(=O)[C@H](CO)NC(=O)[C@H](C)NC(=O)[C@H](CCC(=O)O)NC(=O)[C@H](C)NC(=O)[C@H](Cc1c[nH]cn1)NC(=O)CNC(=O)[C@H](CC(C)C)NC(=O)[C@H](CCC(=O)O)NC(=O)[C@H](CC(=O)O)NC(=O)[C@H](CC(C)C)NC(=O)[C@H](CC(C)C)NC(=O)[C@H](CCCNC(=N)N)NC(=O)[C@H](CCSC)NC(=O)[C@@H](NC(=O)[C@H](CCC(=O)O)NC(=O)[C@H](Cc1ccc(O)cc1)NC(=O)[C@@H](NC(=O)[C@H](CCCCN)NC(=O)[C@H](CCC(N)=O)NC(=O)[C@H](CC(C)C)NC(=O)[C@@H](NC(=O)[C@H](Cc1c[nH]c2ccccc12)NC(=O)[C@H](CCC(=O)O)NC(=O)[C@H](CCCCN)NC(=O)[C@H](CC(=O)O)NC(=O)COCCOCCNC(=O)CCCC[C@@H]1SC[C@@H]2NC(=O)N[C@@H]21)[C@@H](C)CC)[C@@H](C)CC)[C@@H](C)CC)C(C)C)C(=O)N[C@@H](Cc1ccc(O)cc1)C(=O)N[C@@H](CCC(=O)O)C(=O)N[C@@H](Cc1ccccc1)C(N)=O` [LW32.4], the “Stability towards neutrophil elastase (in words)” value on neutrophil elastase [2] is given as “rapidly hydrolyzed”. On pepsin [3], the “Susceptibility to proteolytic degradation by pepsin (in words)” value was “hydrolyzed only at position L31”.

For the compound “Biotin-Aoa-DKEWILQKIYEIMRLLDELGHAEASMRVSDLIYEF-NH2”, the cleaved bond entry with neutrophil elastase [4] was “A-S, 60 min; also recorded: S-M, 60 min”; with pepsin [5], “L31-I32, 60 min”.

For the compound “Biotin-Aoa-[^3 CEWILQKIYEIMRLLDELGHAEASMRVSDLIYEFMKKC]-NH2”, the not cleaved entry in the data set with neutrophil elastase [4] was “still largely intact after 60 min exposure to the enzyme”; in the data set on pepsin [5], “largely stable towards pepsin for at least 60 min”.

Values taken from article PMC9181698 (International Journal of Molecular Sciences, 2022).
